Source: the supplement of paper PMC4862054

Key:
Conditions in all cases: incubation time: 72 h
MDA-MB-453 = test: drug sensitivity score (DSS), CellTox Green (DSS (AUC-based score)); higher = stronger drug effect (viability inhibition or cytotoxicity); extreme values may be limits of the assay
Summary of the method: (§1)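 The area under the fitted dose-response curve was used to calculate the drug sensitivity score. Cells from breast cancer lines were incubated for 72 h in 384-well plates with compound at 5 concentrations spaced 10-fold over a 10,000-fold range specific to each compound. Plates were read for CellTox Green and then CellTiter-Glo, and normalised to 0.1 % DMSO and a positive kill control.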

Hs578T = test: as above
Summary of the method: as §1

BT-549 = test: normalised viability (% of control), CellTiter-Blue; higher = more viable cells (about 100 = DMSO control)
Summary of the method: (§2)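 Plates were quality-checked by Z'-factor and normalised to vehicle (100) and a positive kill control (0). The underlying assay incubated breast cancer cell lines for 72 h on 384-well plates with compound, then added 2.5 µl CellTiter-Blue for 2 h at 37 °C and read at 560/590 nm. The value is normalised viability at a single listed concentration of the series.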

CAL-85-1 = test: as above
Summary of the method: as §2

SK-BR-3 = test: as above
Summary of the method: as §2

DU-4475 = test: as above
Summary of the method: as §2

HCC1143 = test: as above
Summary of the method: as §2

MDA-MB-468 = test: as above
Summary of the method: as §2

BT-474 = test: as above
Summary of the method: as §2

HCC1599 = test: as above
Summary of the method: as §2

Row | Compound | drug sensitivity score (MDA-MB-453) | drug sensitivity score (Hs578T) | normalised viability (BT-549; 100 nM) | normalised viability (CAL-85-1; 10 nM) | normalised viability (SK-BR-3; 100 nM) | normalised viability (DU-4475; 10 nM) | normalised viability (HCC1143; 100 nM) | normalised viability (MDA-MB-468; 100 nM) | normalised viability (BT-474; 100 nM) | normalised viability (HCC1599; 100 nM) | further results
1 | CCS(=O)(=O)c1cccc(-c2cc(C(=O)NC3CCN(C)CC3)c(C)c3[nH]c4ncc(C)cc4c23)c1 [TAK-901] | 0 | 0 | – | – | – | – | – | – | – | – | normalised viability (BT-549; 10 nM): 114%; normalised viability (CAL-85-1; 1 nM): 98%; normalised viability (SK-BR-3; 10 nM): 97.3%; normalised viability (DU-4475; 1 nM): 97%; normalised viability (HCC1143; 10 nM): 87.6%; normalised viability (MDA-MB-468; 10 nM): 105%; normalised viability (BT-474; 10 nM): 113%; normalised viability (HCC1599; 10 nM): 103%
2 | COc1cc(Nc2ncc(F)c(Nc3ccc4c(n3)NC(=O)C(C)(C)O4)n2)cc(OC)c1OC [R406] | – | – | 105% | 90.2% | 95.7% | 122% | 84.4% | 92.3% | 116% | 102% | –
3 | COC1=CC(c2cc3ccccc3[nH]2)=N/C1=C\c1[nH]c(C)cc1C [Obatoclax] | 0 | 0 | 62.9% | 89.4% | 43.3% | 87.7% | 78% | 69% | 70.7% | 93.4% | –
4 | CS(=O)(=O)OCCCCOS(C)(=O)=O [Busulfan] | 0 | 0 | – | – | – | – | – | – | – | – | normalised viability (BT-549; 1000 nM): 85.1%; normalised viability (CAL-85-1; 100 nM): 115%; normalised viability (SK-BR-3; 1000 nM): 97.5%; normalised viability (DU-4475; 100 nM): 91.4%; normalised viability (HCC1143; 1000 nM): 124%; normalised viability (MDA-MB-468; 1000 nM): 114%; normalised viability (BT-474; 1000 nM): 110%; normalised viability (HCC1599; 1000 nM): 101%
5 | COc1cccc2c1C(=O)c1c(O)c3c(c(O)c1C2=O)C[C@@](O)(C(C)=O)C[C@@H]3O[C@H]1C[C@H](N)[C@H](O)[C@H](C)O1 [Daunorubicin] | 0 | 0 | – | – | – | – | – | – | – | – | normalised viability (BT-549; 10 nM): 95.1%; normalised viability (CAL-85-1; 1 nM): 102%; normalised viability (SK-BR-3; 10 nM): 87.3%; normalised viability (DU-4475; 1 nM): 95.8%; normalised viability (HCC1143; 10 nM): 79.2%; normalised viability (MDA-MB-468; 10 nM): 99.8%; normalised viability (BT-474; 10 nM): 115%; normalised viability (HCC1599; 10 nM): 104%
6 | O=c1[nH]cc(F)c(=O)[nH]1 [Fluorouracil] | 0 | 0 | 107% | 94.7% | 87% | 97% | 97.7% | 104% | 116% | 102% | –
7 | FC(F)c1nc2ccccc2n1-c1nc(N2CCOCC2)nc(N2CCOCC2)n1 [ZSTK474] | 0 | 0 | – | – | – | – | – | – | – | – | –
8 | CN1CCN(c2ccc3nc(-c4c(N)c5c(F)cccc5[nH]c4=O)[nH]c3c2)CC1 [Dovitinib] | 0 | 4.14 | 90.5% | 89.2% | 101% | 99.8% | 84.5% | 86.9% | 115% | 88.2% | –
9 | Cc1cc(C(C)Nc2ccccc2)c2nc(N3CCOCC3)cc(=O)n2c1 (stereo unspecified) [TGX-221] | 0 | – | – | – | – | – | – | – | – | – | –
10 | O=c1[nH]c(=O)n([C@H]2C[C@H](O)[C@@H](CO)O2)cc1F [Floxuridine] | 0 | 0 | 93.4% | 93.1% | 53% | 114% | 101% | 51.9% | 117% | 97.2% | –
11 | CC(C)C[C@H](NC(=O)[C@H](Cc1ccccc1)NC(=O)c1cnccn1)B(O)O [Bortezomib] | 2.35 | 17.3 | – | – | – | – | – | – | – | – | normalised viability (BT-549; 10 nM): 39.5%; normalised viability (CAL-85-1; 1 nM): 106%; normalised viability (SK-BR-3; 10 nM): 22.4%; normalised viability (DU-4475; 1 nM): 120%; normalised viability (HCC1143; 10 nM): 52.1%; normalised viability (MDA-MB-468; 10 nM): 12%; normalised viability (BT-474; 10 nM): 50.8%; normalised viability (HCC1599; 10 nM): 110%
12 | COc1cc(Nc2ncc(F)c(Nc3ccc4c(n3)NC(=O)C(C)(C)O4)n2)cc(OC)c1OC [Tamatinib] | 0 | 0 | – | – | – | – | – | – | – | – | –
13 | O=C(c1ccc(OCCN2CCCCC2)cc1)c1c(-c2ccc(O)cc2)sc2cc(O)ccc12 [Raloxifene] | 0 | 2.23 | 87.2% | 101% | 115% | 105% | 109% | 105% | 107% | 104% | –
14 | Cn1cnc2c(F)c(Nc3ccc(Br)cc3F)c(C(=O)NOCCO)cc21 [MEK-162] | 0 | 0 | – | – | – | – | – | – | – | – | normalised viability (BT-549; 10 nM): 107%; normalised viability (CAL-85-1; 1 nM): 98.1%; normalised viability (SK-BR-3; 10 nM): 83.4%; normalised viability (DU-4475; 1 nM): 97.6%; normalised viability (HCC1143; 10 nM): 80.6%; normalised viability (MDA-MB-468; 10 nM): 98%; normalised viability (BT-474; 10 nM): 114%; normalised viability (HCC1599; 10 nM): 111%
15 | COc1c(C)cnc(Cn2cnc3c(Cl)nc(N)nc32)c1C [BIIB021] | 0 | 3.62 | 52.6% | 87.5% | 23.9% | 82.6% | 58.8% | 68.9% | 59.4% | 101% | –
16 | O=P(O)(NCCCl)NCCCl [Ifosfamide mustard] | – | – | 106% | 101% | 86.2% | 99.5% | 116% | 100% | 112% | 117% | –
